Results as given in the NIST ThermoML archive (doi:10.1021/je400056z).

Experiment: xn = mol fraction of the nth substance listed
Conditions: Liquid, Vibrating tube method

CCCCCCCCCCCCC [tridecane] + O=C=O
Conditions | mass density [kg/m3]
313.15 K, 9000 kPa, x2 = 0.0955 | 750.6
313.15 K, 9000 kPa, x2 = 0.2526 | 754.3
313.15 K, 9000 kPa, x2 = 0.7549 | 791.4
313.15 K, 9000 kPa, x2 = 0.8978 | 790.8
313.15 K, 10000 kPa, x2 = 0.0955 | 751.4
313.15 K, 10000 kPa, x2 = 0.2526 | 755.1
313.15 K, 10000 kPa, x2 = 0.7549 | 794.4
313.15 K, 10000 kPa, x2 = 0.8978 | 795.2
313.15 K, 11000 kPa, x2 = 0.0955 | 752.2
313.15 K, 11000 kPa, x2 = 0.2526 | 756
313.15 K, 11000 kPa, x2 = 0.7549 | 797.7
313.15 K, 11000 kPa, x2 = 0.8978 | 799.4
313.15 K, 12000 kPa, x2 = 0.0955 | 753
313.15 K, 12000 kPa, x2 = 0.2526 | 756.8
313.15 K, 12000 kPa, x2 = 0.7549 | 800.8
313.15 K, 12000 kPa, x2 = 0.8978 | 803.7
313.15 K, 13000 kPa, x2 = 0.0955 | 753.7
313.15 K, 13000 kPa, x2 = 0.2526 | 757.6
313.15 K, 13000 kPa, x2 = 0.7549 | 803.7
313.15 K, 13000 kPa, x2 = 0.8978 | 807.9
313.15 K, 14000 kPa, x2 = 0.0955 | 754.5
313.15 K, 14000 kPa, x2 = 0.2526 | 758.4
313.15 K, 14000 kPa, x2 = 0.7549 | 806.6
313.15 K, 14000 kPa, x2 = 0.8978 | 812
313.15 K, 15000 kPa, x2 = 0.0955 | 755.2
313.15 K, 15000 kPa, x2 = 0.2526 | 759.2
313.15 K, 15000 kPa, x2 = 0.7549 | 809.4
313.15 K, 15000 kPa, x2 = 0.8978 | 815.9
313.15 K, 16000 kPa, x2 = 0.0955 | 756
313.15 K, 16000 kPa, x2 = 0.2526 | 759.9
313.15 K, 16000 kPa, x2 = 0.7549 | 812.1
313.15 K, 16000 kPa, x2 = 0.8978 | 819.5
313.15 K, 17000 kPa, x2 = 0.0955 | 756.6
313.15 K, 17000 kPa, x2 = 0.2526 | 760.7
313.15 K, 17000 kPa, x2 = 0.7549 | 814.8
313.15 K, 17000 kPa, x2 = 0.8978 | 823.1
313.15 K, 18000 kPa, x2 = 0.0955 | 757.3
313.15 K, 18000 kPa, x2 = 0.2526 | 761.4
313.15 K, 18000 kPa, x2 = 0.7549 | 817.4
313.15 K, 18000 kPa, x2 = 0.8978 | 826.6
313.15 K, 19000 kPa, x2 = 0.0955 | 758
313.15 K, 19000 kPa, x2 = 0.2526 | 762.1
313.15 K, 19000 kPa, x2 = 0.7549 | 819.8
313.15 K, 19000 kPa, x2 = 0.8978 | 830.1
313.15 K, 20000 kPa, x2 = 0.0955 | 758.7
313.15 K, 20000 kPa, x2 = 0.2526 | 762.8
313.15 K, 20000 kPa, x2 = 0.7549 | 822.2
313.15 K, 20000 kPa, x2 = 0.8978 | 833.3
313.15 K, 21000 kPa, x2 = 0.0955 | 759.3
313.15 K, 21000 kPa, x2 = 0.2526 | 763.5
313.15 K, 21000 kPa, x2 = 0.7549 | 824.6
313.15 K, 21000 kPa, x2 = 0.8978 | 836.4
313.15 K, 22000 kPa, x2 = 0.0955 | 759.9
313.15 K, 22000 kPa, x2 = 0.2526 | 764.2
313.15 K, 22000 kPa, x2 = 0.7549 | 826.9
313.15 K, 22000 kPa, x2 = 0.8978 | 839.5
313.15 K, 23000 kPa, x2 = 0.0955 | 760.5
313.15 K, 23000 kPa, x2 = 0.2526 | 764.8
313.15 K, 23000 kPa, x2 = 0.7549 | 829.1
313.15 K, 23000 kPa, x2 = 0.8978 | 842.6
313.15 K, 24000 kPa, x2 = 0.0955 | 761.1
313.15 K, 24000 kPa, x2 = 0.2526 | 765.4
313.15 K, 24000 kPa, x2 = 0.7549 | 831.2
313.15 K, 24000 kPa, x2 = 0.8978 | 845.4
313.15 K, 25000 kPa, x2 = 0.0955 | 761.7
313.15 K, 25000 kPa, x2 = 0.2526 | 766
313.15 K, 25000 kPa, x2 = 0.7549 | 833.3
313.15 K, 25000 kPa, x2 = 0.8978 | 848.2
313.16 K, 8000 kPa, x2 = 0.5259 | 768.4
313.16 K, 9000 kPa, x2 = 0.5259 | 769.6
313.16 K, 10000 kPa, x2 = 0.5259 | 770.7
313.16 K, 11000 kPa, x2 = 0.5259 | 771.9
313.16 K, 12000 kPa, x2 = 0.5259 | 773
313.16 K, 13000 kPa, x2 = 0.5259 | 774.1
313.16 K, 14000 kPa, x2 = 0.5259 | 775.1
313.16 K, 15000 kPa, x2 = 0.5259 | 776.2
313.16 K, 16000 kPa, x2 = 0.5259 | 777.2
313.16 K, 17000 kPa, x2 = 0.5259 | 778.2
313.16 K, 18000 kPa, x2 = 0.5259 | 779.2
313.16 K, 19000 kPa, x2 = 0.5259 | 780.2
313.16 K, 20000 kPa, x2 = 0.5259 | 781.1
313.16 K, 21000 kPa, x2 = 0.5259 | 782
313.16 K, 23000 kPa, x2 = 0.5259 | 783.8
313.16 K, 24000 kPa, x2 = 0.5259 | 784.6
313.16 K, 25000 kPa, x2 = 0.5259 | 785.5
323.14 K, 11000 kPa, x2 = 0.8978 | 772.5
323.14 K, 12000 kPa, x2 = 0.8978 | 777.9
323.14 K, 13000 kPa, x2 = 0.8978 | 782.8
323.14 K, 14000 kPa, x2 = 0.8978 | 787.3
323.14 K, 15000 kPa, x2 = 0.8978 | 791.5
323.14 K, 16000 kPa, x2 = 0.8978 | 795.7
323.14 K, 17000 kPa, x2 = 0.8978 | 799.7
323.14 K, 18000 kPa, x2 = 0.8978 | 803.4
323.14 K, 19000 kPa, x2 = 0.8978 | 807.2
323.14 K, 20000 kPa, x2 = 0.8978 | 810.7
323.14 K, 21000 kPa, x2 = 0.8978 | 814
323.14 K, 22000 kPa, x2 = 0.8978 | 817.5
323.14 K, 23000 kPa, x2 = 0.8978 | 820.7
323.14 K, 24000 kPa, x2 = 0.8978 | 823.8
323.14 K, 25000 kPa, x2 = 0.8978 | 826.7
323.16 K, 9000 kPa, x2 = 0.0955 | 743.8
323.16 K, 9000 kPa, x2 = 0.2526 | 747
323.16 K, 10000 kPa, x2 = 0.0955 | 744.6
323.16 K, 10000 kPa, x2 = 0.2526 | 747.9
323.16 K, 11000 kPa, x2 = 0.0955 | 745.4
323.16 K, 11000 kPa, x2 = 0.2526 | 748.7
323.16 K, 11000 kPa, x2 = 0.7549 | 778.8
323.16 K, 12000 kPa, x2 = 0.0955 | 746.2
323.16 K, 12000 kPa, x2 = 0.2526 | 749.6
323.16 K, 12000 kPa, x2 = 0.7549 | 781.9
323.16 K, 13000 kPa, x2 = 0.0955 | 746.9
323.16 K, 13000 kPa, x2 = 0.2526 | 750.4
323.16 K, 13000 kPa, x2 = 0.7549 | 785.1
323.16 K, 14000 kPa, x2 = 0.0955 | 747.7
